Experimental data from patent US9409966B2, “Glucagon-like peptide-1 derivatives and their pharmaceutical use” (priority 2007, dated 2016).
pEC50: −log10 of the molar value. *1 amine or outer side, *2 acyl side, *3 side chain or, on linkers, in order; H or OH if unused. Where a SMILES comes first, the peptide text is derived from it. Side-chain parts run from the residue outwards. [ ]: non-standard residue; d: D form. The star is where a group is joined. X1 = O=C(CCCCCCCCCCCCCCCc1nnn[nH]1)NS(=O)(=O)CCCC(=O)*; γGlu = O=C(O)[C@H](CCC(=O)[*:2])N[*:1]; 12Ado = NCCCCCCCCCCCC(=O)O; AEEA = NCCOCCOCC(=O)O; Aib = CC(C)(N)C(=O)O

Columns and labels:
[1] = target: human serum albumin (HSA) (Homo sapiens, UniProt P02768); assay: Albumin binding affinity, competition scintillation proximity assay (SPA)
human serum albumin (HSA), sequence (P02768 25-609): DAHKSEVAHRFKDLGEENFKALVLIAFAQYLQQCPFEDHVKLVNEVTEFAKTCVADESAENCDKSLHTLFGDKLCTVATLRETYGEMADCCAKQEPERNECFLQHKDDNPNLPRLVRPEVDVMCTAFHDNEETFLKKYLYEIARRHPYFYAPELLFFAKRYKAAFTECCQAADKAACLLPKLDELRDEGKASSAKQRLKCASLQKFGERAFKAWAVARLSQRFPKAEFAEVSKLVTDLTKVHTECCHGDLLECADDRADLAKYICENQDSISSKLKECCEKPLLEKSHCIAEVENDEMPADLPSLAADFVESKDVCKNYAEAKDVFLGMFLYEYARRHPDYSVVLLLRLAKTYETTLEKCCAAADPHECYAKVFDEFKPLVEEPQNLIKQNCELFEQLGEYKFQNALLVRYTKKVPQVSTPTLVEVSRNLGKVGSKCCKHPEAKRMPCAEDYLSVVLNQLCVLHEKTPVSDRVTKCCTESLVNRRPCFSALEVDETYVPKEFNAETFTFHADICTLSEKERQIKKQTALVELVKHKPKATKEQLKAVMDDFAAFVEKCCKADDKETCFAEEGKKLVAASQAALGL
Method: Streptavidin-SPA beads (GE Healthcare RPNQ0009) were incubated with biotinylated HSA for 5 hours. The beads were washed with buffer to remove unbound HSA. […] After 20 hours of gentle rocking at room temperature the plates were centrifuged and counted on a TopCounter.

human GLP-1 receptor = target: T1, human GLP-1 receptor (Homo sapiens, UniProt P43220); assay: Stimulation of cAMP formation in a cell line expressing the cloned human GLP-1 receptor; type: biochemical; settings: cAMP production, purified plasma membranes from BHK467-12A (tk-ts13), AlphaScreen cAMP Assay Kit; read-out: Potency [EC50/nM]
T1 construct: expressed in transfected cells; host or cells: BHK467-12A (tk-ts13) baby hamster kidney cells; purified plasma membranes
T1 sequence (P43220 24-463): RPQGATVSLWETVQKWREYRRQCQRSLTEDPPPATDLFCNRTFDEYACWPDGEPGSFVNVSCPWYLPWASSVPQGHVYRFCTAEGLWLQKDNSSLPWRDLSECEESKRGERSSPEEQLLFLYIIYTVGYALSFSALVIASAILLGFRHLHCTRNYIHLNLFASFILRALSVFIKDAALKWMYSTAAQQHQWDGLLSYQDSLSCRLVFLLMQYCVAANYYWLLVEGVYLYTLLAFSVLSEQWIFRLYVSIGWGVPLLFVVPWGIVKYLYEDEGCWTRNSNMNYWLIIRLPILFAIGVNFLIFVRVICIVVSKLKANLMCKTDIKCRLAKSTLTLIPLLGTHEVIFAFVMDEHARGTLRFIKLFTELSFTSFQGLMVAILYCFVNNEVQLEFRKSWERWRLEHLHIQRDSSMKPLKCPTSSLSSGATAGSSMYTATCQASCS
Method: A stable transfected cell line has been prepared at NN A/S, Denmark, and a high expressing clone was selected for screening. The cells were grown at 5% CO2 in DMEM, 5% FCS, 1% Pen/Strep (Penicillin/Streptomycin) and 0.5 mg/ml of the selection marker G418.
Cells at approximate 80% confluence were washed 2× with PBS (Phosphate Buffered Saline) and harvested with Versene (aqueous solution of the tetrasodium salt of ethylenediaminetetraacetic acid), centrifuged 5 min at 1000 rpm and the supernatant removed. The additional steps were all made on ice. […] Suspension in Buffer 2, homogenization and centrifugation was repeated once and the membranes were resuspended in Buffer 2 and ready for further analysis or stored at −80° C.
The functional receptor assay was carried out by measuring the peptide induced cAMP production by The AlphaScreen Technology. […] The capture of cAMP is achieved by using a specific antibody conjugated to acceptor beads. Formed cAMP was counted and measured at a AlphaFusion Microplate Analyzer. The EC50 values were calculated using the Graph-Pad Prisme software (version 5).

Compound	pEC50 [1]	EC50 (human GLP-1 receptor) [nM]
CC[C@H](C)[C@H](NC(=O)[C@H](Cc1ccccc1)NC(=O)[C@H](CCC(=O)O)NC(=O)[C@H](CCCNC(=N)N)NC(=O)[C@H](C)NC(=O)[C@H](C)NC(=O)[C@H](CCC(N)=O)NC(=O)[C@H](CCC(=O)O)NC(=O)[C@H](CCC(=O)O)NC(=O)[C@H](CC(C)C)NC(=O)[C@H](Cc1ccc(O)cc1)NC(=O)[C@H](CO)NC(=O)[C@H](CO)NC(=O)[C@@H](NC(=O)[C@H](CC(=O)O)NC(=O)[C@H](CO)NC(=O)[C@@H](NC(=O)[C@H](Cc1ccccc1)NC(=O)[C@@H](NC(=O)CNC(=O)[C@H](CCC(=O)O)NC(=O)[C@H](C)NC(=O)CCc1c[nH]cn1)[C@@H](C)O)[C@@H](C)O)C(C)C)C(=O)N[C@@H](C)C(=O)N[C@@H](Cc1c[nH]c2ccccc12)C(=O)N[C@@H](CC(C)C)C(=O)N[C@H](C(=O)N[C@@H](CCCNC(=N)N)C(=O)NCC(=O)N[C@@H](CCCNC(=N)N)C(=O)N[C@@H](CCCCNC(=O)COCCOCCNC(=O)COCCOCCNC(=O)CC[C@H](NC(=O)[C@H]1CC[C@H](CNC(=O)CCCCCCCCCCCCCCCCCCC(=O)O)CC1)C(=O)O)C(N)=O)C(C)C [Example 8, N-epsilon37-[2-(2-{2-[2-(2-{2-[(S)-4-Carboxy-4-({trans-4-[(19-carboxy-nonadecanoylamino)methyl]cyclohexanecarbonyl}amino)butyrylamino]ethoxy}ethoxy)acetylamino]ethoxy}ethoxy)acetyl][DesaminoHis7,Glu22,Arg26,Arg34,Lys37]GLP-1-(7-37)amide]	5.70 to 5.82	0.66
CC[C@H](C)[C@H](NC(=O)[C@H](Cc1ccccc1)NC(=O)[C@H](CCC(=O)O)NC(=O)[C@H](CCCNC(=N)N)NC(=O)[C@H](C)NC(=O)[C@H](C)NC(=O)[C@H](CCC(N)=O)NC(=O)[C@H](CCC(=O)O)NC(=O)[C@H](CCC(=O)O)NC(=O)[C@H](CC(C)C)NC(=O)[C@H](Cc1ccc(O)cc1)NC(=O)[C@H](CO)NC(=O)[C@H](CO)NC(=O)[C@@H](NC(=O)[C@H](CC(=O)O)NC(=O)[C@H](CO)NC(=O)[C@@H](NC(=O)[C@H](Cc1ccccc1)NC(=O)[C@@H](NC(=O)CNC(=O)[C@H](CCC(=O)O)NC(=O)[C@H](C)NC(=O)CCc1c[nH]cn1)[C@@H](C)O)[C@@H](C)O)C(C)C)C(=O)N[C@@H](C)C(=O)N[C@@H](Cc1c[nH]c2ccccc12)C(=O)N[C@@H](CC(C)C)C(=O)N[C@H](C(=O)N[C@@H](CCCNC(=N)N)C(=O)NCC(=O)N[C@@H](CCCNC(=N)N)C(=O)N[C@@H](CCCCNC(=O)COCCOCCNC(=O)COCCOCCNC(=O)CC[C@H](NC(=O)[C@H]1CC[C@H](CNC(=O)CCCCCCCCCCCCCCCCCCC(=O)O)CC1)C(=O)O)C(=O)O)C(C)C [Example 9, N-epsilon37-[2-(2-{2-[2-(2-{2-[(S)-4-Carboxy-4-({trans-4-[(19-carboxy-nonadecanoylamino)methyl]cyclohexanecarbonyl}amino)butyrylamino]ethoxy}ethoxy)acetylamino]ethoxy}ethoxy)acetyl][DesaminoHis7,Glu22,Arg26,Arg34,Lys37]GLP-1-(7-37)]	5.82 to 6.10	0.5
CC[C@H](C)[C@H](NC(=O)[C@H](Cc1ccccc1)NC(=O)[C@H](CCC(=O)O)NC(=O)[C@H](CCCNC(=N)N)NC(=O)[C@H](C)NC(=O)[C@H](C)NC(=O)[C@H](CCC(N)=O)NC(=O)[C@H](CCC(=O)O)NC(=O)[C@H](CCC(=O)O)NC(=O)[C@H](CCCCNC(=O)COCCOCCNC(=O)CC[C@H](NC(=O)CC[C@H](NC(=O)CCCCCCCCCCCNC(=O)CCCS(=O)(=O)NC(=O)CCCCCCCCCCCCCCCc1nnn[nH]1)C(=O)O)C(=O)O)NC(=O)[C@H](Cc1ccc(O)cc1)NC(=O)[C@H](CO)NC(=O)[C@H](CO)NC(=O)[C@@H](NC(=O)[C@H](CC(=O)O)NC(=O)[C@H](CO)NC(=O)[C@@H](NC(=O)[C@H](Cc1ccccc1)NC(=O)[C@@H](NC(=O)CNC(=O)[C@H](CCC(=O)O)NC(=O)C(C)(C)NC(=O)[C@@H](N)Cc1c[nH]cn1)[C@@H](C)O)[C@@H](C)O)C(C)C)C(=O)N[C@@H](CCC(=O)O)C(=O)N[C@@H](Cc1c[nH]c2ccccc12)C(=O)N[C@@H](CC(C)C)C(=O)N[C@H](C(=O)N[C@@H](CCCCN)C(=O)NCC(=O)N[C@@H](CCCNC(=N)N)C(=O)N1CCC[C@H]1C(N)=O)C(C)C [Example 11, N-epsilon20-[2-(2-{2-[(S)-4-Carboxy-4-((S)-4-carboxy-4-{12-[4-(16-(1H-tetrazol-5-yl)hexadecanoylsulfamoyl)butyrylamino]dodecanoylamino}butyrylamino)butyrylamino]ethoxy}ethoxy)acetyl][Aib8,Lys20,Glu22,Arg26,Glu30,Pro37]GLP-1-(7-37)amide] (H-H[Aib]EGTFTSDVSSYK([AEEA-γGlu-γGlu-12Ado-X1])EEQAAREFIEWLVKGRP-NH2)	7.00 to 9.00	0.61
CC[C@H](C)[C@H](NC(=O)[C@H](Cc1ccccc1)NC(=O)[C@H](CCC(=O)O)NC(=O)[C@H](CCCNC(=N)N)NC(=O)[C@H](C)NC(=O)[C@H](C)NC(=O)[C@H](CCC(N)=O)NC(=O)[C@H](CCC(=O)O)NC(=O)[C@H](CCC(=O)O)NC(=O)[C@H](CC(C)C)NC(=O)[C@H](Cc1ccc(O)cc1)NC(=O)[C@H](CO)NC(=O)[C@H](CO)NC(=O)[C@@H](NC(=O)[C@H](CC(=O)O)NC(=O)[C@H](CO)NC(=O)[C@@H](NC(=O)[C@H](Cc1ccccc1)NC(=O)[C@@H](NC(=O)CNC(=O)[C@H](CCC(=O)O)NC(=O)C(C)(C)NC(=O)[C@@H](N)Cc1c[nH]cn1)[C@@H](C)O)[C@@H](C)O)C(C)C)C(=O)N[C@@H](C)C(=O)N[C@@H](Cc1c[nH]c2ccccc12)C(=O)N[C@@H](CC(C)C)C(=O)N[C@H](C(=O)N[C@@H](CCCNC(=N)N)C(=O)NCC(=O)N[C@@H](CCCNC(=N)N)C(=O)N[C@@H](CCCCNC(=O)COCCOCCNC(=O)CC[C@H](NC(=O)CC[C@H](NC(=O)CCCCCCCCCCCNC(=O)CCCS(=O)(=O)NC(=O)CCCCCCCCCCCCCCCc1nnn[nH]1)C(=O)O)C(=O)O)C(N)=O)C(C)C [Example 12, N-epsilon37-[2-(2-{2-[(S)-4-Carboxy-4-((S)-4-carboxy-4-{12-[4-(16-(1H-tetrazol-5-yl)hexadecanoylsulfamoyl)butyrylamino]dodecanoylamino}butyrylamino)butyrylamino]ethoxy}ethoxy)acetyl][Aib8,Glu22,Arg26,Arg34,Lys37]GLP-1-(7-37)amide]	5.82 to 6.10	1.8
